Source: patent US20090280153A1, “electrical devices, anti-scarring agents, and therapeutic compositions” (Angiotech International AG, priority 2005, published 2009)
Like-named read-outs stand apart in the source and are kept apart here.

How the values were obtained:
[1] = test system: fibroblasts and/or smooth muscle cells, macrophages; test: assays described herein (in vitro screening assays for anti-fibrosis agents); type: cell-based; settings: approximately, read-out: IC50 range in the assays described herein
From the text: Agents which may inhibit fibrosis or gliosis may be readily identified based upon in vitro and in vivo (animal) models, such as those provided in Examples 39-52. Depending on their mechanisms, various agents may be effective in some, but not all screening assays for anti-fibrosis or anti-gliosis agents, and different agents may be effective in different screening assays. Agents which inhibit fibrosis can be identified through in vivo models including inhibition of intimal hyperplasia development in the rat balloon carotid artery model (Examples 44 and 61). The assays set forth in Examples 43 and 51 may be used to determine whether an agent is able to inhibit cell proliferation in fibroblasts and/or smooth muscle cells. In one aspect of the invention, the agent has an IC50 for inhibition of cell proliferation within a range of about 10^−6 to about 10^−10 M. In certain embodiments, the agent may have an IC50 for inhibition of cell proliferation of less than about 10,000 nM; or less than about 1000 nM; or less than about 100 nM. The assay set forth in Example 47 may be used to determine whether an agent may inhibit migration of fibroblasts and/or smooth muscle cells. In one aspect of the invention, the agent has an IC50 for inhibition of cell migration within a range of about 10^−6 to about 10^−9M. In certain embodiments, the agent may have an IC50 for inhibition of fibroblast or smooth muscle cell migration of less than about 10,000 nM; or less than about 1000 nM; or less than about 100 nM. Assays set forth herein may be used to determine whether an agent is able to inhibit inflammatory processes, including nitric oxide production in macrophages (Example 39), and/or TNF-alpha production by macrophages (Example 40), and/or IL-1 beta production by macrophages (Example 48), and/or IL-8 production by macrophages (Example 49), and/or inhibition of MCP-1 by macrophages (Example 50). In one aspect of the invention, the agent has an IC50 for inhibition of any one of these inflammatory processes within a range of about 10^−6 to about 10^−10M. In certain embodiments, the agent may have an IC50 for any one of these inflammatory processes of less than about 10,000 nM; or less than about 1000 nM; or less than about 100 nM. The assay set forth in Example 45 may be used to determine whether an agent is able to inhibit MMP production. In one aspect of the invention, the agent has an IC50 for inhibition of MMP production within a range of about 10^−4 to about 10^−8M. In certain embodiments, the agent may have an IC50 for inhibition of MMP production of less than about 10,000 nM; or less than about 1000 nM; or less than about 100 nM. The assay set forth in Example 46 (also known as the CAM assay) may be used to determine whether an agent is able to inhibit angiogenesis. In one aspect of the invention, the agent has an IC50 for inhibition of angiogenesis within a range of about 10^−6 to about 10^−10M. In certain embodiments, the agent may have an IC50 for inhibition of angiogenesis of less than about 10,000 nM; or less than about 1000 nM; or less than about 100 nM. The assay set forth in Example 52 may be used to determine whether an agent is able to inhibit MMP-1. In one aspect of the invention, the agent has an IC50 for inhibition of MMP-1 within a range of about 10^−6 to about 10^−10M. In certain embodiments, the agent may have an IC50 for inhibition of MMP-1 of less than about 10,000 nM; or less than about 1000 nM; or less than about 100 nM. Agents which reduce the formation of surgical adhesions may be identified through in vivo models including the rabbit surgical adhesions model (Example 42) and the rat caecal sidewall model (Example 41). […]

bacteria and fungi = settings: surface drug concentration is to exceed this value; cited from earlier work
AP-1 = test: IL-1 induced AP-1 binding activity in chondrocyte lysates (FIG. 4C); type: cell-based; settings: chondrocytes pretreated with paclitaxel
[2] = test system: collagenase and stromelysin; test: IL-1 induced collagenase and stromelysin expression in chondrocytes (FIGS. 4D, 5A-H); type: cell-based; settings: pretreatment with paclitaxel; FIG. 4D
[3] = high potency (1-100) or mid-potency (100-500) agents

Nc1ncn([C@@H]2O[C@H](CO)[C@@H](O)[C@H]2O)c(=O)n1 [5-azacytidine]
IC50 ([1]; low potency agents): 0.5 to 1 µM

O=c1[nH]cc(F)c(=O)[nH]1 [5-fluorouracil, 5-Fluorouracil]
concentration known to be lethal to bacteria and fungi (bacteria and fungi): 10^−4 M

CN(C)C[C@@H]1CCn2cc(c3ccccc32)C2=C(C(=O)NC2=O)c2cn(c3ccccc23)CCO1 [Ly333531 (ruboxistaurin), ruboxistaurin]
IC50 ([1]; low potency agents): 0.5 to 1 µM

COCc1c(C(C)C)nc(C(C)C)c(/C=C/[C@@H](O)C[C@@H](O)CC(=O)O)c1-c1ccc(F)cc1 [cerivastatin]
IC50 [1, 3]: 0.001 to 0.1 µM

Nc1nc(Cl)nc2c1ncn2[C@H]1C[C@H](O)[C@@H](CO)O1 [cladribine]
IC50 [1, 3]: 0.1 to 0.5 µM

CCC(=O)O[C@]1(C(=O)CCl)[C@@H](C)C[C@H]2[C@@H]3CCC4=CC(=O)C=C[C@]4(C)[C@@]3(F)[C@@H](O)C[C@@]21C [clobetasol propionate]
IC50 [1, 3]: 0.001 to 0.1 µM

COc1cccc2c1C(=O)c1c(O)c3c(c(O)c1C2=O)C[C@@](O)(C(=O)CO)C[C@@H]3O[C@H]1C[C@H](N)[C@H](O)[C@H](C)O1 [doxorubicin, Doxorubicin]
concentration known to be lethal to bacteria and fungi (bacteria and fungi): 10^−4 M

COc1cc([C@@H]2c3cc4c(cc3[C@@H](O[C@@H]3O[C@@H]5CO[C@@H](C)O[C@H]5[C@H](O)[C@H]3O)[C@H]3COC(=O)[C@H]23)OCO4)cc(OC)c1O [etoposide, Etoposide]
concentration known to be lethal to bacteria and fungi (bacteria and fungi): 10^−5 M

COC(=O)C[C@](O)(CCCC(C)(C)O)C(=O)O[C@@H]1C(OC)=C[C@]23CCCN2CCc2cc4c(cc2[C@H]13)OCO4 [homoharringtonine]
IC50 [1, 3]: 0.001 to 0.1 µM

CC1=C(/C=C/C(C)=C/C=C/C(C)=C\C(=O)O)C(C)(C)CCC1 [isotretinoin]
IC50 [1, 3]: 0.001 to 0.1 µM

O=C1C=CC(=O)c2c(O)cccc21 [juglone]
IC50 [1, 3]: 0.1 to 0.5 µM

CCOC(=O)O[C@]1(C(=O)OCCl)CC[C@H]2[C@@H]3CCC4=CC(=O)C=C[C@]4(C)[C@H]3[C@@H](O)C[C@@]21C [loteprednol etabonate]
IC50 [1, 3]: 0.1 to 0.5 µM

O=C[C@@H](O)[C@@H](O)[C@H](O)[C@H](O)COP(=O)(O)O [mannose-6-phosphate]
IC50 [1, 3]: 0.1 to 0.5 µM

O=C1c2c(O)ccc(O)c2C(=O)c2c(NCCNCCO)ccc(NCCNCCO)c21 [mitoxantrone]
concentration known to be lethal to bacteria and fungi (bacteria and fungi): 10^−5 M

CC(=O)O[C@H]1C(=O)[C@@]2(C)[C@H]([C@H](OC(=O)c3ccccc3)[C@]3(O)C[C@H](OC(=O)[C@H](O)[C@@H](NC(=O)c4ccccc4)c4ccccc4)C(C)=C1C3(C)C)[C@]1(OC(C)=O)CO[C@@H]1C[C@@H]2O [paclitaxel]
IL-1 induced binding activity in lysates from chondrocytes (AP-1): decreased | IL-1 induction of collagenase and stromelysin RNA levels in chondrocytes [2]: inhibited

Cc1ccc(=O)n(-c2ccccc2)c1 [pirfenidone]
IC50 [1, 3]: 0.001 to 0.1 µM

C[C@]12C=CC(=O)C=C1CC[C@@H]1[C@@H]2[C@@H](O)C[C@@]2(C)[C@H]1CC[C@]2(O)C(=O)CO [prednisolone]
IC50 [1, 3]: 0.1 to 0.5 µM

COc1ccc(C[C@H](N)C(=O)N[C@H]2[C@@H](O)[C@H](n3cnc4c(N(C)C)ncnc43)O[C@@H]2CO)cc1 [puromycin]
IC50 [1, 3]: 0.1 to 0.5 µM

C[C@@H]1C[C@H]2O[C@@H]2/C=C\C=C\C(=O)Cc2c(Cl)c(O)cc(O)c2C(=O)O1 [radicicol]
IC50 [1, 3]: 0.001 to 0.1 µM

CCC(C)(C)C(=O)O[C@H]1C[C@@H](C)C=C2C=C[C@H](C)[C@H](CC[C@@H]3C[C@@H](O)CC(=O)O3)[C@H]21 [simvastatin]
IC50 ([1]; low potency agents): 0.5 to 1 µM

C=CC[C@@H]1/C=C(\C)C[C@H](C)C[C@H](OC)[C@H]2O[C@@](O)(C(=O)C(=O)N3CCCC[C@H]3C(=O)O[C@H](/C(C)=C/[C@@H]3CC[C@@H](O)[C@H](OC)C3)[C@H](C)[C@@H](O)CC1=O)[C@H](C)C[C@@H]2OC [tacrolimus]
IC50 [1, 3]: 0.001 to 0.1 µM

C/C=C(/C)C(=O)O[C@H]1C(C)=C2[C@H]([C@@H]1OC(=O)CCCCCCC)[C@@](C)(OC(C)=O)C[C@H](OC(=O)CCC)[C@@]1(O)[C@H]2OC(=O)[C@@]1(C)O [thapsigargin]
IC50 [1, 3]: 0.001 to 0.1 µM

CCC1=C[C@@H]2CN(C1)Cc1c([nH]c3ccccc13)[C@@](C(=O)OC)(c1cc3c(cc1OC)N(C)[C@H]1[C@@](O)(C(=O)OC)[C@H](OC(C)=O)[C@]4(CC)C=CCN5CC[C@]31[C@@H]54)C2 [vinorelbine]
IC50 [1, 3]: 0.001 to 0.1 µM
